The text below walks through data of US9353141B2, “Galectoside inhibitors of galectins” (GALECTO BIOTECH AB, priority 2012, dated 2016).

Assay [1] has as its target T1, galectin-8 (N-terminal domain) (Homo sapiens, UniProt O00214).
T1 sequence (O00214 19-152 limits assumed): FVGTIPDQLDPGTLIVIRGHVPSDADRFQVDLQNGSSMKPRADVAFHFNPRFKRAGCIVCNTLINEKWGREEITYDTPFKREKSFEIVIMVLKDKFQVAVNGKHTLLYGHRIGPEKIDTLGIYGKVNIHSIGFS
Briefly: Fluorescence polarization-based galectin inhibition assay. The conditions noted are these: 20° C., read-out: Calculated Kd Galectin 8 (N-terminal domain). In kind it is binding. From the text: (§1) Identification of the substances was made by HRMS (Micromass Q-tof micro) and NMR (Bruker Ultrashield 400 plus, 400 MHz). Chemical shifts are reported downfield from Me4Si using residual […] (7.26 ppm) or CHD2OD (3.35 ppm) as reference. Chemical shifts and coupling constants were obtained from ^1H-NMR and proton resonances were assigned from COSY experiments. Purification was made by RF-HPLC (Beckman, system gold) or flash chromatography, using silica gel (Davisil 35-70 μm, 60 Å). Reactions were followed by TLC (Aluminum sheet, silica gel 60 F254) visualized with UV light, H2SO4 (aq) or an iso-vanillin/H2SO4/EtOH development solution. THF and Et2O were dried over sodium/benzophenone and distilled. CH2Cl2 was dried by molecular sieves (4 Å, 1.6 mm). Other solvents and reagents were commercially available and used without further purifications. Fluorescence polarization experiments were performed on a PolarStar instrument (BMG, Offenburg; Germany). Evaluation of 20-34 as inhibitors of galectins was performed by use of fluorescence polarization as described in the literature (Sorme et al., 2003a, 2004). Galectin concentrations and fluorescent probe choice and concentrations were as described in Cumpstey et al. 2005a, except for galectin-3 for which the probe tdga-probe described in Salomonsson et al. 2010 was used at 20 nM together with galectin-3 at 200 nM concentrations. Each inhibitor was tested in duplicate at several concentrations between 4 and 0.25 μM. All fluorescence polarization experiments were conducted at 20° C., except galectin-7 for which experiments were conducted at 0° C.

The target of assay [2] is galectin-9 (N-terminal domain) (Homo sapiens, UniProt O00182). The description is as above. In kind it is binding. The note with it: 20° C., read-out: Calculated Kd Galectin 9 (N-terminal domain).
Excerpt: as §1

Assay [3] deals with T2, galectin-4 (N-terminal domain) (Homo sapiens, UniProt P56470).
T2 sequence (P56470 19-150 limits assumed): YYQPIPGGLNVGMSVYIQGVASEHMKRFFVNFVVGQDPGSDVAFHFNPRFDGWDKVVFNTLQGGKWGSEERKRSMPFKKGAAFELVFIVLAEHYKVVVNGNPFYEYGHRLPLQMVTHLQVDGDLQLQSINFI
The description is as above. It counts as binding.
Excerpt: as §1

In a further assay the target is galectin-3 (Homo sapiens, UniProt P17931). The description is as above. The note with it: 20° C., tdga-probe 20 nM, galectin-3 200 nM, read-out: Calculated Kd Galectin 3. In kind it is binding.
Excerpt: as §1

The target in assay [4] is galectin-9 (C-terminal domain) (Homo sapiens, UniProt O00182). The description is as above. The note with it: 20° C., read-out: Calculated Kd Galectin 9 (C-terminal domain). In kind it is binding.
Excerpt: as §1

A further assay deals with galectin-1 (Homo sapiens, UniProt P09382). The description is as above. It counts as binding. The note with it: 20° C., read-out: Calculated Kd Galectin 1.
Excerpt: as §1

Assay [5] has as its target T3, galectin-4 (C-terminal domain) (Homo sapiens, UniProt P56470).
T3 sequence (P56470 194-323 limits assumed): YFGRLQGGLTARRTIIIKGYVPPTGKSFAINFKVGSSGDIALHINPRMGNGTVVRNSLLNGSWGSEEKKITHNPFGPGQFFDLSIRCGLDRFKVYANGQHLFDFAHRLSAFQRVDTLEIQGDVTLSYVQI
The assay is described as above. In kind it is binding. The note with it: 20° C., read-out: Calculated Kd Galectin 4 (C-terminal domain).
Excerpt: as §1

The next assay concerns the target galectin-7 (Homo sapiens, UniProt P47929). The description is as above. It counts as binding. The conditions noted are these: 0° C., read-out: Calculated Kd Galectin 7.
Excerpt: as §1

A further assay relates to galectins. The note with it: all galectins; cited from earlier work.

Each structure is given as a SMILES string. Like-named read-outs stand apart in the source and are kept apart here.

Sequence of galectin-1 (P09382 whole entry, species assumed): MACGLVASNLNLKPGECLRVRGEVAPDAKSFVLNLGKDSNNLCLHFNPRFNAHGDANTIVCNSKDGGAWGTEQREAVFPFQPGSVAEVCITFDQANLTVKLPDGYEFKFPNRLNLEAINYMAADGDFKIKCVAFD
Sequence of galectin-9 (C-terminal domain) (O00182 227-355 limits assumed, species assumed): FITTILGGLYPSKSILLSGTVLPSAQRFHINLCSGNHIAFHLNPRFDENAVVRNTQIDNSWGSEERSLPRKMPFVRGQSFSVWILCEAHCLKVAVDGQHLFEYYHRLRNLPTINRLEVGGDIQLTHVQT
Sequence of galectin-3 (P17931 whole entry, species assumed): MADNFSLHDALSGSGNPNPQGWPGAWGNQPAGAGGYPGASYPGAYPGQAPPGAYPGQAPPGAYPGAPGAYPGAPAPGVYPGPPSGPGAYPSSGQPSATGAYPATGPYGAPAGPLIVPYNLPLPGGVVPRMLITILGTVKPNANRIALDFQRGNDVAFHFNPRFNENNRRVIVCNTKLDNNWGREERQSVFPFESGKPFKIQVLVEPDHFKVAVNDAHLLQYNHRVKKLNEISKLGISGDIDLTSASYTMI
Sequence of galectin-9 (N-terminal domain) (O00182 17-148 limits assumed, species assumed): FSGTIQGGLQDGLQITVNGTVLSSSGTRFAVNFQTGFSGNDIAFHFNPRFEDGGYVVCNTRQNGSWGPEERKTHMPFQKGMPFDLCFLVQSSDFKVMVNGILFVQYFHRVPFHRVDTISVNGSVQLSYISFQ
Sequence of galectin-7 (P47929 whole entry, species assumed): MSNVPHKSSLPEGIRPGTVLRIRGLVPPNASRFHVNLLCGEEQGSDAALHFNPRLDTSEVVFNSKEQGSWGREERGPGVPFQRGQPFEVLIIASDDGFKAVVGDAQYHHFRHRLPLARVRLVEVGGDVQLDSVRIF

A word on the Kd: it is a measure of binding affinity in units of concentration. As for `O=c1oc2ccccc2cc1CO[C@H]1[C@@H](O)[C@@H](CO)O[C@@H](S[C@@H]2O[C@H](CO)[C@H](O)[C@H](OCc3cc4ccccc4oc3=O)[C@H]2O)[C@@H]1O` [Compound 20, bis-{3-O-[(2H-1-benzopyran-2-on-3-yl)-methyl]-β-D-galactopyranosyl}sulfane], the Kd was 11 µM in assay [1]; 1.7 µM in assay [2]; 49 µM in assay [3]; 0.25 µM on galectin-3; 2.4 µM in assay [4]; 15.4 µM on galectin-1. Moreover, the Kd was 156 µM in assay [5] and 3.9 µM on galectin-7.
In the case of `O=c1oc2cc(Cl)ccc2cc1CO[C@H]1[C@@H](O)[C@@H](CO)O[C@@H](S[C@@H]2O[C@H](CO)[C@H](O)[C@H](OCc3cc4ccc(Cl)cc4oc3=O)[C@H]2O)[C@@H]1O` [Compound 21, bis-{3-O-[(7-chloro-2H-1-benzopyran-2-on-3-yl)-methyl]-β-D-galactopyranosyl}sulfane], the Kd in assay [1] is 74 µM; in assay [2], 140 µM; on galectin-3, 4.7 µM; at galectin-1, 21 µM; on galectin-7, 61 µM.
Regarding `COc1ccc2cc(CO[C@H]3[C@@H](O)[C@@H](CO)O[C@@H](S[C@@H]4O[C@H](CO)[C@H](O)[C@H](OCc5cc6ccc(OC)cc6oc5=O)[C@H]4O)[C@@H]3O)c(=O)oc2c1` [Compound 22, bis-{3-O-[(7-methoxy-2H-1-benzopyran-2-on-3-yl)-methyl]-β-D-galactopyranosyl}sulfane], the Kd is 85 µM in [1]; 13 µM in [2]; 130 µM in [3] (fluorescence polarization, 20° C., read-out: Calculated Kd Galectin 4 (N-terminal domain)); 0.89 µM on galectin-3; approximately 4 µM in [4]; 9.9 µM on galectin-1. Also, the Kd in [5] is more than 500 µM; on galectin-7 it was 37 µM.
For the compound `O=C(NC1C(O)[C@H](S[C@@H]2OC(CO)[C@H](O)C(NC(=O)c3ccc4ccccc4c3)C2O)OC(CO)[C@@H]1O)c1ccc2ccccc2c1` (stereo partly shown) [Compound 36, reference compound], the Kd is more than 100 µM in assay [1]; 0.73 µM in assay [2]; 0.16 µM at galectin-3; 9.6 µM on galectin-1; 1.7 µM on galectin-7.
Consider `O=C[C@H](O)[C@@H](O)[C@@H](O)[C@H](O)CO` [D-galactose], for which, in the assay on galectins, the “affinity compared with lactose” value was 50-100 times lower.
Turning to `OC[C@H]1O[C@@H](O[C@H]2[C@H](O)[C@@H](O)C(O)O[C@@H]2CO)[C@H](O)[C@@H](O)[C@H]1O` (stereo partly shown) [lactose], the Kd on galectins is 500 to 1000 µM.
`CO[C@@H]1OC(CO)[C@H](O)C(O)C1O` (stereo partly drawn) [methyl β-D-galactoside, reference compound]: the Kd in assay [2] was 3400 µM; in assay [4], 5000 µM; at galectin-7, 4800 µM.
